Test results taken from PubChem BioAssay (NCI).
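Cultured in 96-well plates, cells were exposed to test compound for 48 hours across five concentrations. The concentration for 50% growth inhibition is given as GI50. TGI is the concentration that stops growth completely.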

Key:
Experiment in all cases: NCI-60 cell line screen, 48 h
HCC-2998 colon = tested on: HCC-2998 colon
HCT-15 colon = tested on: HCT-15 colon
HT29 colon = tested on: HT29 colon
NCI-H460 lung = tested on: NCI-H460 lung
SF-539 CNS = tested on: SF-539 CNS
SK-MEL-5 melanoma = tested on: SK-MEL-5 melanoma
SK-OV-3 ovarian = tested on: SK-OV-3 ovarian
TK-10 renal = tested on: TK-10 renal
UO-31 renal = tested on: UO-31 renal
MOLT-4 leukemia = tested on: MOLT-4 leukemia
NCI-H226 lung = tested on: NCI-H226 lung

SMILES | GI50 (HCC-2998 colon) | TGI (HCC-2998 colon) | GI50 (HCT-15 colon) | TGI (HCT-15 colon) | GI50 (HT29 colon) | TGI (HT29 colon) | GI50 (NCI-H460 lung) | TGI (NCI-H460 lung) | GI50 (SF-539 CNS) | TGI (SF-539 CNS) | GI50 (SK-MEL-5 melanoma) | TGI (SK-MEL-5 melanoma) | GI50 (SK-OV-3 ovarian) | TGI (SK-OV-3 ovarian) | GI50 (TK-10 renal) | TGI (TK-10 renal) | GI50 (UO-31 renal) | TGI (UO-31 renal) | TGI (MOLT-4 leukemia) | TGI (NCI-H226 lung)
Cn1cc(-c2csc(-c3cn(C)c4ccc(Br)cc34)n2)c2cnccc21 | 1.9 µM | 3.57 µM | 1.75 µM | 3.25 µM | 1.6 µM | 3.09 µM | 1.87 µM | 3.47 µM | 1.8 µM | 3.23 µM | 1.7 µM | 3.09 µM | 1.99 µM | 3.6 µM | 1.71 µM | 3.22 µM | 1.63 µM | 3 µM |  | 
[O-]c1c[n+](CCCC[n+]2cc([O-])on2)no1 |  | > 100 µM |  | > 100 µM |  | > 100 µM |  | > 100 µM |  | > 100 µM |  | > 100 µM |  | > 100 µM |  | > 100 µM |  | > 100 µM | > 100 µM | 
NC(=O)c1ccc(NS(=O)(=O)c2ccc(N)cc2)nc1 |  | > 100 µM |  | > 100 µM |  | > 100 µM |  | > 100 µM |  |  |  | > 100 µM |  | > 100 µM |  | > 100 µM |  | > 100 µM | > 100 µM | > 100 µM
CN(C)CC1CCCC(CN2CCCCC2)C1=O (centres undefined) |  | 33.4 µM |  | 27.9 µM |  | 25.1 µM |  | > 68.6 µM |  | 33.6 µM |  | 33.5 µM |  | > 100 µM |  | 21.3 µM |  | 26.7 µM | 12.5 µM | 43.1 µM
CC(N)C(=O)OCN1C(=O)C2C3C=CC(C2C1=O)C1C2C(=O)N(COC(=O)C(C)N)C(=O)C2C31 (centres undefined) |  | 97.9 µM |  | 37.9 µM |  | > 100 µM |  | 34.3 µM |  | 47.2 µM |  | 34.1 µM |  | > 100 µM |  | > 100 µM |  | > 100 µM | 51.8 µM | > 100 µM
Nc1nc(Cl)cc(NCCCNc2cc(Cl)nc(N)n2)n1 |  | > 100 µM |  | > 100 µM |  | > 100 µM |  | > 100 µM |  | > 100 µM |  | > 100 µM |  | > 100 µM |  | > 100 µM |  | > 100 µM | > 100 µM | > 100 µM
C1CCC(OCc2nnn3c2CCC3)OC1 (centres undefined) |  | > 100 µM |  | > 100 µM |  | > 100 µM |  | > 100 µM |  | > 100 µM |  | > 100 µM |  | > 100 µM |  | > 100 µM |  | > 100 µM | > 100 µM | 
C=C1C(=O)OC2/C=C(\C)C3OC3/C=C(/C(=O)OC)C(O)C(OC(=O)C3(C)OC3C)C12 (centres undefined) |  | 4.66 µM |  | 3.78 µM |  | 3.63 µM |  | 17.8 µM |  | 5.46 µM |  | 3.42 µM |  | 26.4 µM |  | 9.14 µM |  | 27.3 µM | 4.05 µM | 32.2 µM
Cc1ccccc1[P+](C)(c1ccccc1C)c1ccccc1C |  | 12.6 µM |  | 48.2 µM |  | 19.1 µM |  | > 100 µM |  | 40.8 µM |  | 16.8 µM |  | > 100 µM |  | 36.8 µM |  | 34.8 µM |  | 35.7 µM
O=c1oc2ccccc2n1P(=O)(n1c(=O)oc2ccccc21)n1c(=O)oc2ccccc21 |  | > 100 µM |  |  |  | > 100 µM |  | > 100 µM |  | > 100 µM |  |  |  | > 100 µM |  | > 100 µM |  | > 100 µM | > 100 µM | > 100 µM
CO[C@H]1ON=C(c2c(C)cc(C)cc2C)[C@@H]1C1(c2ccccc2)ON=C(c2c(C)cc(C)cc2C)O1 (some centres undefined) |  | > 100 µM |  |  |  |  |  | > 100 µM |  | > 100 µM |  |  |  | > 100 µM |  | > 100 µM |  | > 100 µM | > 100 µM | 
c1ccc(CSC2(SCc3ccccc3)CCCC2)cc1 |  | > 10 µM |  | > 10 µM |  | > 10 µM |  | > 10 µM |  | > 10 µM |  | > 10 µM |  | > 10 µM |  | > 10 µM |  | > 10 µM | > 10 µM | > 10 µM
CC(C)OC(=O)Nc1cccc(Cl)c1 |  | > 100 µM |  | > 100 µM |  | > 100 µM |  | > 100 µM |  | > 100 µM |  | > 100 µM |  | > 100 µM |  | > 100 µM |  | > 100 µM | > 100 µM | > 100 µM
CS/C(C#N)=C(\C#N)SC |  | 20.9 µM |  | 5.95 µM |  | 64.2 µM |  | 81.4 µM |  | 34.1 µM |  | 49.1 µM |  |  |  | 20.7 µM |  | 18.9 µM | 4.77 µM | 5.92 µM
Cc1ccc(S(=O)(=O)N2c3ccccc3[C@H]3CCc4c([nH]c5ccccc45)[C@H]32)cc1 |  | > 100 µM |  |  |  | > 100 µM |  | > 100 µM |  | > 100 µM |  | > 100 µM |  | > 100 µM |  | > 100 µM |  | > 100 µM | > 100 µM | > 100 µM
CN1C(=O)CN2C(Cl)(Cl)C2(c2ccccc2F)c2cc([N+](=O)[O-])ccc21 (centres undefined) |  | 86 µM |  | > 100 µM |  | > 100 µM |  | > 100 µM |  |  |  | > 100 µM |  |  |  | > 100 µM |  | > 100 µM | 57.2 µM | 92.5 µM
